Like-named read-outs stand apart in the source and are kept apart here.

Our source for the Ki values is US7615651B2, “Diaryl, dipyridinyl and aryl-pyridinyl derivatives and uses thereof” (Pfizer Inc., priority 2006, dated 2009).

Common to all, as to assay type: biochemical
The target in one experiment is T1, opioid receptor mu (Homo sapiens, UniProt P35372).
T1 construct: expressed in transfected cells
Kind of experiment: GTPγ[35S] binding assay, antagonism of endorphin. On the procedure: (§1) Membranes were prepared from cells as described (Bass et al, 1996). GTPγ[5S] binding assays were performed in a 96 well FlashPlate™ format in duplicate using […] GTPγ[^35S] and 5 μg membrane per well in assay buffer composed of 50 mM Tris HCl, pH 7.4, 5 mM MgCl2, 1 mM EDTA, 100 mM NaCl, 30 μM GDP, 0.1% bovine serum albumin and the following protease inhibitors: 100 μg/ml bacitracin, 100 μg/ml benzamidine, 5 μg/ml aprotinin, 5 μg/ml leupeptin. The assay mix was then incubated at 30° C. with increasing concentrations of antagonist (10^−10 M to 10^−5 M) for 10 minutes and challenged with the agonists BW-373U86 (1 nM), dynorphin-A (10 nM), […] (1 μM) for opioid receptors delta, kappa, and mu, respectively. The assays were performed at 30° C. for one hour. The FlashPlates were then centrifuged at 2000×g for 10 minutes. Stimulation of GTPγ[^35S] binding was then quantified using a Wallac Microbeta and Ki calculations were done using Prism™ by Graphpad.
Background: Binding of GTPγS marks nucleotide exchange on a G protein.

Another experiment deals with T2, opioid receptor delta (Homo sapiens, UniProt P41143).
T2 construct: expressed in transfected cells
T2 sequence (P41143 whole entry): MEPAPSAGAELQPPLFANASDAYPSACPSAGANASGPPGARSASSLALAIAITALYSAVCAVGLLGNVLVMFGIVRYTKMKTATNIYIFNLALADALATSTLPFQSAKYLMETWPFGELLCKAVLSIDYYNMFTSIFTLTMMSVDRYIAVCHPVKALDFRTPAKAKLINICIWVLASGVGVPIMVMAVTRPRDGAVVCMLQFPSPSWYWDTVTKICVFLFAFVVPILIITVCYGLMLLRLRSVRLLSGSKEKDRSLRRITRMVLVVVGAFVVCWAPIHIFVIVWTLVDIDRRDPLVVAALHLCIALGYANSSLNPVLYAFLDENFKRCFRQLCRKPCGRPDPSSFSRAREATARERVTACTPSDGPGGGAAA
Kind of experiment: GTPγ[35S] binding assay, antagonism of BW-373U86. On the procedure:
as §1

The next experiment concerns the target T3, opioid receptor kappa (Homo sapiens, UniProt P41145).
T3 construct: expressed in transfected cells
Kind of experiment: GTPγ[35S] binding assay, antagonism of dynorphin-A. As for the experimental part:
as §1

The mark [1] stands for this setting: read-out: Mu functional (GTPγ[35S] binding Ki).
Where [2] appears, read: read-out: Delta functional (GTPγ[35S] binding Ki).
The mark [3] stands for this setting: read-out: Kappa functional (GTPγ[35S] binding Ki).
[4] abbreviates: read-out: Mu functional Ki (GTPγ[35S] binding).
The mark [5] stands for this setting: read-out: Delta functional Ki (GTPγ[35S] binding).
[6] abbreviates: read-out: Kappa functional Ki (GTPγ[35S] binding).
The mark [7] stands for this setting: average Ki, antagonism of endorphin (1 μM) at mu opioid receptor membranes, read-out: Mu functional Ki (GTPγ[35S] binding).
Setting [8] is: average Ki, antagonism of BW-373U86 (1 nM) at delta opioid receptor membranes, read-out: Delta functional Ki (GTPγ[35S] binding).
[9] abbreviates: average Ki, antagonism of dynorphin-A (10 nM) at kappa opioid receptor membranes, read-out: Kappa functional Ki (GTPγ[35S] binding).

T1 sequence (P35372 whole entry): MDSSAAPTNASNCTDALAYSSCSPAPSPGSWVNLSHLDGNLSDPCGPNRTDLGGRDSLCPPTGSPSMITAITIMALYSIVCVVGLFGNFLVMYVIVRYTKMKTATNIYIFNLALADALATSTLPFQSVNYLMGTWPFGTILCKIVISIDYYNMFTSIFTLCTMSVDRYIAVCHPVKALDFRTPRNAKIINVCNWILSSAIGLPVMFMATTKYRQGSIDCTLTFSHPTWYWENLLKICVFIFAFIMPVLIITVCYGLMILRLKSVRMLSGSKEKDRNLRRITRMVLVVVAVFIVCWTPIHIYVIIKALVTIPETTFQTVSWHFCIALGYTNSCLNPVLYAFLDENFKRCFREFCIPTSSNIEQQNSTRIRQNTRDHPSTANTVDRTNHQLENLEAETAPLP
T3 sequence (P41145 whole entry): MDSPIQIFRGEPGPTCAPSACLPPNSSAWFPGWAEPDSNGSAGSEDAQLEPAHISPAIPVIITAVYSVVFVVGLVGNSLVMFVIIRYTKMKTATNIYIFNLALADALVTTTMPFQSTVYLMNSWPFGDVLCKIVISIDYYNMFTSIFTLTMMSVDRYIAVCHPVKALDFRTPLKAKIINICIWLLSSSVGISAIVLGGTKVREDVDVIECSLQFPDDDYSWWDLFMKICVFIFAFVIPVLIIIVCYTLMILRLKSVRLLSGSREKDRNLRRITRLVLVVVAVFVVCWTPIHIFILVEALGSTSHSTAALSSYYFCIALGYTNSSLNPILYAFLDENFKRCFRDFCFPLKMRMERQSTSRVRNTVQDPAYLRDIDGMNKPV

As for `Cc1cc(C(N)=O)ccc1-c1ccc(CNCc2ccccc2F)cc1` [4B-26], the Ki amounted to 4.55 nM at opioid receptor mu (setting [1]), 5.72 nM at opioid receptor delta (setting [2]) and 3.32 nM on opioid receptor kappa (setting [3]).
As for `Cc1cc(C(N)=O)ccc1-c1ccc(CNC(C)c2ccc3ccccc3c2)cc1` (stereo not drawn) [4B-27], the Ki on opioid receptor mu (setting [1]) was 14.3 nM; at opioid receptor delta (setting [2]) it was 2.98 nM; on opioid receptor kappa (setting [3]) it was 2.86 nM.
Consider `Cc1cc(C(N)=O)ccc1-c1ccc(CN[C@@H]2CCCc3ccccc32)cc1` [4B-28], for which the Ki on opioid receptor mu (setting [1]) worked out at 26.1 nM; on opioid receptor delta (setting [2]), 26.3 nM; on opioid receptor kappa (setting [3]), 4.12 nM.
Taken in the same sequence, the figures for `CC(C)CCNCc1ccc(-c2ccc(C(N)=O)cc2Cl)cc1` [4B-29] were 16.2 nM, 6.12 nM and 6.1 nM.
Taken in the same sequence, the figures for `NC(=O)c1ccc(-c2ccc(CNC3Cc4ccccc4C3)cc2)c(Cl)c1` [4B-30] were 0.41 nM, 0.378 nM and 0.842 nM.
For `Cc1cc(C(N)=O)ccc1-c1ccc(CNCC2Cc3ccccc3O2)cc1` (stereo not drawn) [4B-31], the Ki on opioid receptor mu (setting [1]) came out at 4.05 nM; on opioid receptor delta (setting [2]), 1.09 nM; at opioid receptor kappa (setting [3]), 3.71 nM.
Consider `Cc1cc(C(N)=O)cc(C)c1-c1ccc(CNC2Cc3ccccc3C2)cc1` [4B-32], for which the Ki at opioid receptor mu (setting [1]) was 0.0492 nM; at opioid receptor delta (setting [2]), 0.0696 nM; on opioid receptor kappa (setting [3]) it was 0.14 nM.
As to `Cc1cc(C(N)=O)ccc1-c1ccc(CN[C@@H]2CCc3ccccc32)cc1` [4B-33], the Ki on opioid receptor mu (setting [1]) stood at 4.95 nM; on opioid receptor delta (setting [2]) it was 2.49 nM; at opioid receptor kappa (setting [3]), 0.911 nM.
Regarding `Cc1cc(C(N)=O)ccc1-c1ccc(CN[C@H]2CCc3ccccc32)cc1` [4B-34], the Ki is 1.08 nM on opioid receptor mu (setting [4]), 1.09 nM on opioid receptor delta (setting [5]) and 0.512 nM on opioid receptor kappa (setting [6]).
In the same order, the values of `Cc1cc(C(N)=O)ccc1-c1ccc(CNCC2Cc3ccccc3C2)cc1` [4B-35] are 1.32 nM, 0.687 nM and 7.13 nM.
For the compound `Cc1cc(C(N)=O)ccc1-c1ccc(CNCC2CCc3ccccc3O2)cc1` (stereo not drawn) [4B-36], the Ki on opioid receptor mu (setting [4]) worked out at 1.45 nM; on opioid receptor delta (setting [5]), 0.453 nM; on opioid receptor kappa (setting [6]) it was 6.5 nM.
Taken in the same sequence, the figures for `NC(=O)c1ccc(-c2ccc(CNCCC3CCOCC3)cc2)c(Cl)c1` [4B-37] were 13.7 nM, 60.3 nM and 4.61 nM.
Consider `NC(=O)c1ccc(-c2ccc(CN[C@H]3CCc4ccccc43)cc2)c(Cl)c1` [4B-38], for which the Ki on opioid receptor mu (setting [4]) was 3.33 nM; at opioid receptor delta (setting [5]), 5.59 nM; at opioid receptor kappa (setting [6]) it was 1.14 nM.
`NC(=O)c1ccc(-c2ccc(CNCCC3CCCC3)cc2)c(Cl)c1` [4B-39]: the values for the Ki on opioid receptor mu (setting [4]), at opioid receptor delta (setting [5]) and on opioid receptor kappa (setting [6]) were 1.87 nM, 0.612 nM and 1.28 nM, respectively.
Taken in the same sequence, the figures for `Cc1cc(C(N)=O)ccc1-c1ccc(CNCC2CCOCC2)cc1` [4B-40] were 48.3 nM, 20.4 nM and 9.05 nM.
In the same order, the values of `Cc1cc(C(N)=O)ccc1-c1ccc(CN[C@H](C)c2ccccc2)cc1` [4B-41] are 61.4 nM, 14.1 nM and 13.5 nM.
As for `Cc1cc(C(N)=O)ccc1-c1ccc(CN[C@@H](C)c2ccccc2)cc1` [4B-42], the Ki turned out to be 65.4 nM at opioid receptor mu (setting [4]), 22.2 nM on opioid receptor delta (setting [5]) and 6.19 nM on opioid receptor kappa (setting [6]).
Regarding `Cc1cc(C(N)=O)ccc1-c1ccc(CNCc2cccnc2)cc1` [4B-43], the Ki on opioid receptor mu (setting [4]) stood at 70.2 nM; on opioid receptor delta (setting [5]), 10.6 nM; on opioid receptor kappa (setting [6]), 8.95 nM.
Taken in the same sequence, the figures for `Cc1cc(C(N)=O)ccc1-c1ccc(CNCc2ccccn2)cc1` [4B-44] were 61.7 nM, 26.1 nM and 25.7 nM.
For the compound `CC(C)CCNCc1ccc(-c2ccc(C(N)=O)cc2OCc2ccccc2)cc1` [4B-45], the results for the Ki at opioid receptor mu (setting [4]), at opioid receptor delta (setting [5]) and on opioid receptor kappa (setting [6]) were 40.2 nM, 44.6 nM and 9.84 nM, respectively.
In the same order, the values of `CC(C)CCNCc1ccc(-c2ccc(C(N)=O)cc2O)cc1` [4B-47] are 549 nM, 543 nM and 80.6 nM.
Consider `CCc1cc(C(N)=O)ccc1-c1ccc(CNCCC(C)C)cc1` [4B-48], for which the Ki on opioid receptor mu (setting [4]) is 12 nM; at opioid receptor delta (setting [5]) it was 16.1 nM; on opioid receptor kappa (setting [6]), 13.9 nM.
Take `Cc1cc(C(N)=O)cc(Cl)c1-c1ccc(CNCCC(C)C)cc1` [4B-49]: the values for the Ki at opioid receptor mu (setting [4]), at opioid receptor delta (setting [5]) and at opioid receptor kappa (setting [6]) were 2.72 nM, 6.66 nM and 2.31 nM, respectively.
On to `Cc1cc(C(N)=O)ccc1-c1cc(F)c(CNCCC2CCOCC2)c(F)c1` [4B-50], for which the figures for the Ki on opioid receptor mu (setting [7]), on opioid receptor delta (setting [8]) and at opioid receptor kappa (setting [9]) were 1.45 nM, 0.135 nM and 0.948 nM, respectively.
Take `Cc1cc(C(N)=O)ccc1-c1cc(F)c(CNCCC2CCOCC2)c(F)c1` [4B-51]: the Ki at opioid receptor mu (setting [4]) amounted to 2.16 nM; on opioid receptor delta (setting [5]) it was 0.707 nM; at opioid receptor kappa (setting [6]), 1.95 nM.
In the same order, the values of `CC[C@@H](NCc1c(F)cc(-c2ccc(C(N)=O)cc2C)cc1F)c1ccccn1` [4B-52] are 138 nM, 15.4 nM and 7.01 nM.
Taken in the same sequence, the figures for `Cc1cc(C(N)=O)ccc1-c1cc(F)c(CN[C@H](C)c2ccccn2)c(F)c1` [4B-53] were 92.7 nM, 3.74 nM and 43.1 nM.
For the compound `Cc1cc(C(N)=O)ccc1-c1cc(F)c(CNC2CCCC2)c(F)c1` [4B-54], the results for the Ki on opioid receptor mu (setting [4]), on opioid receptor delta (setting [5]) and at opioid receptor kappa (setting [6]) were 37 nM, 14.5 nM and 15.4 nM, respectively.
Taken in the same sequence, the figures for `Cc1cc(C(N)=O)ccc1-c1cc(F)c(CNC[C@@H]2CCCO2)c(F)c1` [4B-55] were 30.7 nM, 19 nM and 8.55 nM.
In the case of `Cc1cc(C(N)=O)ccc1-c1ccc(CNCC2CCOCC2)c(F)c1` [4B-56], the figures for the Ki at opioid receptor mu (setting [4]), on opioid receptor delta (setting [5]) and on opioid receptor kappa (setting [6]) were 36.8 nM, 8.44 nM and 9.04 nM, respectively.
In the same order, the values of `NC(=O)c1ccc(-c2cc(F)c(CNCCC3CCOCC3)c(F)c2)c(Cl)c1` [4B-57] are 12.7 nM, 168 nM and 4.58 nM.
Consider `NC(=O)c1ccc(-c2ccc(CNCCC3CCOCC3)c(F)c2)c(Cl)c1` [4B-58], for which the figures for the Ki at opioid receptor mu (setting [4]), on opioid receptor delta (setting [5]) and at opioid receptor kappa (setting [6]) were 7.3 nM, 4.02 nM and 1.77 nM, respectively.
In the case of `Cc1cc(C(N)=O)ccc1-c1cc(F)c(CNCC2CCOCC2)c(F)c1` [4B-59], the figures for the Ki on opioid receptor mu (setting [4]), at opioid receptor delta (setting [5]) and on opioid receptor kappa (setting [6]) were 33.3 nM, 19.1 nM and 9.47 nM, respectively.
With `Cc1cc(C(N)=O)ccc1-c1ccc(CNCCC2CCOCC2)c(F)c1` [4B-60], the Ki on opioid receptor mu (setting [4]) was 3.9 nM; at opioid receptor delta (setting [5]), 1.43 nM; at opioid receptor kappa (setting [6]), 1.49 nM.
On to `CC(C)CCNCc1ccc(-c2ccc(C(N)=O)cc2Cl)c(F)c1` [4B-61], for which the results for the Ki at opioid receptor mu (setting [4]), at opioid receptor delta (setting [5]) and on opioid receptor kappa (setting [6]) were 25.6 nM, 12.6 nM and 4.92 nM, respectively.
In the same order, the values of `Cc1cc(CNCCC(C)C)ccc1-c1ccc(C(N)=O)cc1Cl` [4B-62] are 6.4 nM, 3.58 nM and 2.56 nM.
Consider `NC(=O)c1ccc(-c2ccc(CNC3Cc4ccccc4C3)c(F)c2)c(Cl)c1` [4B-63], for which the Ki at opioid receptor mu (setting [4]) was 0.226 nM; on opioid receptor delta (setting [5]), 0.629 nM; at opioid receptor kappa (setting [6]) it was 0.633 nM.
Taken in the same sequence, the figures for `CC(C)CCNCc1ccc(-c2ccc(C(N)=O)cc2Cl)cc1F` [4B-64] were 12.1 nM, 5.64 nM and 3.97 nM.
Regarding `CC(C)CCNCc1ccc(-c2ccc(C(N)=O)cc2Cl)cc1Cl` [4B-65], the Ki on opioid receptor mu (setting [4]) was found to be 10.8 nM; on opioid receptor delta (setting [5]), 4.79 nM; on opioid receptor kappa (setting [6]), 2.15 nM.
Taken in the same sequence, the figures for `CC(C)CCNCc1ccc(-c2ccc(C(N)=O)cc2Cl)c(Cl)c1` [4B-66] were 7.83 nM, 7.52 nM and 2.52 nM.
Taken in the same sequence, the figures for `NC(=O)c1ccc(-c2ccc(CNCCC3CCOCC3)cc2Cl)c(Cl)c1` [4B-67] were 7.22 nM, 2.95 nM and 3.62 nM.
In the case of `NC(=O)c1ccc(-c2ccc(CNC3Cc4ccccc4C3)cc2Cl)c(Cl)c1` [4B-68], the Ki is 0.24 nM on opioid receptor mu (setting [7]), 0.724 nM at opioid receptor delta (setting [8]) and 0.759 nM on opioid receptor kappa (setting [9]).
As for `NC(=O)c1ccc(-c2ccc(CNCCC3CCCCO3)cc2Cl)c(Cl)c1` (stereo not drawn) [4B-69], the Ki at opioid receptor mu (setting [4]) turned out to be 2.78 nM; at opioid receptor delta (setting [5]), 4.09 nM; at opioid receptor kappa (setting [6]), 4.54 nM.
As for `Cc1cc(CNCCC2CCOCC2)ccc1-c1ccc(C(N)=O)cc1C` [4B-70], the Ki was found to be 2 nM on opioid receptor mu (setting [4]), 1.04 nM at opioid receptor delta (setting [5]) and 2.48 nM at opioid receptor kappa (setting [6]).
In the same order, the values of `Cc1cc(CNCC2CCOCC2)ccc1-c1ccc(C(N)=O)cc1C` [4B-71] are 8.37 nM, 6.2 nM and 6.91 nM.
With `Cc1cc(CNCC2CCCO2)ccc1-c1ccc(C(N)=O)cc1C` (stereo not drawn) [4B-72], the Ki on opioid receptor mu (setting [4]) was found to be 9.83 nM; on opioid receptor delta (setting [5]), 13 nM; on opioid receptor kappa (setting [6]), 5.44 nM.
